From patent US20070275968A1, “Substituted Biphenyl Derivative” (priority 2004, published 2007)
Where two headings read alike, the source gives them in different places.

Key:
[1] = tested on: NRK-49F cells; assay: Collagen synthesis inhibition test; type: cell-based; conditions: 25 ng/mL TGF-β added, cultured about 44 hr, 3H-labeled proline taken into collagen, no TGF-β = 100% inhibition, no test compound = 0% inhibition, read-out: Collagen synthesis inhibiting activity IC50
Experimental: Collagen Synthesis Inhibition Test
Collagen synthesis inhibiting activity was evaluated by the following assay.
NRK-49F cells (Dainippon Pharmaceutical) are seeded into a 96-well plate. After becoming confluent, the medium is changed to a serum-free Dulbecco's modified MEM medium (Invitrogen) containing 5 μg/mL insulin, 5 μg/mL transferin, and 5 ng/mL selenious acid. One day later, the medium is changed to a serum-free Dulbecco's modified MEM medium (80 μl) containing 10 ng/mL IGF-II (Sigma) and 50 μg/mL L-ascorbic acid (Sigma), and a ten times concentration of a test compound (10 μl) is added thereto. Thirty minutes later, 25 ng/mL TGF-β (R&D System: 10 μL) is added to the medium, and the cells are cultured for about 44 hr. Twenty four hours before the termination of the culturing, ^3H-labeled proline (Amersham: 1 μCi) is added so as to be taken into collagen in the cells. When the culturing is terminated, 30% trichloroacetic acid (50 μL) is added to the medium. After leaving for 20 min, proteins are precipitated by centrifugation at 3000 rpm for 10 min. The supernatant is removed, and the residue is twice washed with 200 μL of a washing solution (ethanol:ether=3:1). The precipitate is air-dried, and the washing solution is sufficiently removed. After addition of 60 μL of a collagenase solution (2 mg/mL collagenase VII (Sigma), 50 mM Tris-HCl (pH 7.4), 5 mM CaCl2), the resulting mixture is treated at 37° C. for 2 hr to decompose collagen. Then, 90 μL of 15% trichloroacetic acid and 5% tannic acid are added thereto. The resulting mixture is left for 20 min and then centrifuged at 3000 rpm for 10 min. The supernatant (50 μL) is transferred to LumaPlate (PerkinElmer Lifescience) and is air-dried. Then, the amount of ^3H is measured by a Top Count.

Row | Compound | IC50 ([1]; Rattus norvegicus) [µM] | melting point [°C] | IC50 [1] [µM]
1 | Cc1cccc(-c2nc(C(C)C)[nH]c2-c2ccc(F)c(-c3ccc(CN4CCOCC4)cc3)c2)n1 [Example 109] |  |  | 0.13
2 | Cc1cccc(-c2cn(C(C)C)nc2-c2ccc(F)c(-c3cn[nH]c3)c2)n1 [Example 112, 2-{5-[4-Fluoro-3-(1H-pyrazol-4-yl)phenyl]-2-isopropyl-1H-pyrazol-4-yl}-6-methylpyridine] |  |  | 0.03
3 | Cc1cccc(-c2nc[nH]c2-c2ccc(F)c(-c3cnn(C)c3)c2)n1 [Example 121, 2-{5-[4-Fluoro-3-(1-methyl-1H-pyrazol-4-yl)phenyl]-1H-imidazol-4-yl}-6-methylpyridine] | 0.01 | 205 | 
4 | CNS(=O)(=O)c1ccc(-c2cc(-c3c[nH]nc3-c3cccc(C)n3)ccc2F)cc1 [Example 156, 2′-Fluoro-N-methyl-5′-[3-(6-methylpyridin-2-yl)-1H-pyrazol-4-yl]-1,1′-biphenyl-4-sulfonamide] | 0.1 |  | 
5 | Cc1cccc(-c2n[nH]cc2-c2ccc(F)c(-c3ccc(C(C)(C)O)cn3)c2)n1 [Example 160, 2-(6-{2-Fluoro-5-[3-(6-methylpyridin-2-yl)-1H-pyrazol-4-yl]phenyl}pyridin-3-yl)propan-2-ol] | 0.19 | 169 to 172 | 
6 | Cc1cccc(-c2n[nH]cc2-c2ccc(F)c(-c3cnn(CCO)c3)c2)n1 [Example 162, 2-(4-{2-Fluoro-5-[3-(6-methylpyridin-2-yl)-1H-pyrazol-4-yl]phenyl}-1H-pyrazol-1-yl)ethanol] | 0.03 |  | 
7 | Cc1cccc(-c2n[nH]cc2-c2ccc(F)c(-c3ccc(O)cc3)c2)n1 [Example 197, 2′-Fluoro-5′-[3-(6-methylpyridin-2-yl)-1H-pyrazol-4-yl]-1,1′-biphenyl-4-ol] |  | 72 to 74 | 
8 | Cc1cccc(-c2nn(C)cc2-c2ccc(F)c(-c3ccc(S(C)(=O)=O)cc3)c2)n1 [Example 199, 2-{4-[6-Fluoro-4′-(methylsulfonyl)-1,1′-biphenyl-3-yl]-1-methyl-1H-pyrazol-3-yl}-6-methylpyridine] |  | 66 to 67 | 
9 | Cc1cccc(-c2nn(C(C)C)cc2-c2ccc(F)c(-c3ccc(S(C)(=O)=O)cc3)c2)n1 [Example 200, 2-{4-[6-Fluoro-4′-(methylsulfonyl)-1,1′-biphenyl-3-yl]-1-isopropyl-1H-pyrazol-3-yl}-6-methylpyridine] |  | 172 to 173 | 
10 | Cn1cc(-c2cc(-c3c[nH]nc3-c3ccccn3)ccc2F)cn1 [Example 201, 2-{4-[4-Fluoro-3-(1-methyl-1H-pyrazol-4-yl)phenyl]-1H-pyrazol-3-yl}pyridine] |  | 134 to 136 | 
11 | CS(=O)(=O)c1ccc(-c2cc(-c3c[nH]nc3-c3cccc(C4CC4)n3)ccc2F)cc1 [Example 203, 2-Cyclopropyl-6-{4-[6-fluoro-4′-(methylsulfonyl)-1,1′-biphenyl-3-yl]-1H-pyrazol-3-yl}pyridine] |  | 102 to 104 | 
12 | NS(=O)(=O)c1ccc(-c2cc(-c3c[nH]nc3-c3cccc(C4CC4)n3)ccc2F)cc1 [Example 204, 5′-[3-(6-Cyclopropylpyridin-2-yl)-1H-pyrazol-4-yl]-2′-fluoro-1,1′-biphenyl-4-sulfonamide] |  | 225 to 226 | 
13 | Cc1cccc(-c2n[nH]cc2-c2ccc(F)c(-c3cc[nH]n3)c2)n1 [Example 205, 2-{4-[4-Fluoro-3-(1H-pyrazol-3-yl)phenyl]-1H-pyrazol-3-yl}-6-methylpyridine] |  | 105 to 108 | 
14 | Cc1cccc(-c2n[nH]cc2-c2ccc(F)c(-c3c[nH]c(C(O)CO)n3)c2)n1 (stereo not shown) [Example 207, 1-(4-{2-Fluoro-5-[3-(6-methylpyridin-2-yl)-1H-pyrazol-4-yl]phenyl}-1H-imidazol-2-yl)ethane-1,2-diol] |  | 125 to 127 | 
15 | Cc1cccc(-c2n[nH]cc2-c2ccc(F)c(-c3c[nH]c(CO)n3)c2)n1 [Example 208, (4-{2-Fluoro-5-[3-(6-methylpyridin-2-yl)-1H-pyrazol-4-yl]phenyl}-1H-imidazol-2-yl)methanol] |  | 243 to 246 | 
16 | Cc1cccc(-c2n[nH]cc2-c2ccc(F)c(-c3c[nH]c(CC(C)(C)O)n3)c2)n1 [Example 210, 1-(4-{2-Fluoro-5-[3-(6-methylpyridin-2-yl)-1H-pyrazol-4-yl]phenyl}-1H-imidazol-2-yl)-2-methylpropan-2-ol] |  | 136 to 140 | 
17 | Cc1cccc(-c2n[nH]cc2-c2ccc(F)c(-c3cn4c(n3)[S+]([O-])CC4)c2)n1 (stereo not shown) [Example 211, 6-{2-Fluoro-5-[3-(6-methylpyridin-2-yl)-1H-pyrazol-4-yl]phenyl}-2,3-dihydroimidazo[2,1-b][1,3]thiazole 1-oxide] |  | 140 to 144 | 
18 | Cc1cccc(-c2n[nH]cc2-c2ccc(F)c(-c3c[nH]c(CCN4CCOCC4)n3)c2)n1 [Example 213, 4-[2-(4-{2-Fluoro-5-[3-(6-methylpyridin-2-yl)-1H-pyrazol-4-yl]phenyl}-1H-imidazol-2-yl)ethyl]morpholine] |  | 239 to 240 | 
19 | Cc1cccc(-c2nc(N)sc2-c2ccc(F)c(-c3ccc(S(C)(=O)=O)cc3)c2)n1 [Example 215, 5-[6-Fluoro-4′-(methylsulfonyl)-1,1′-biphenyl-3-yl]-4-(6-methylpyridin-2-yl)-1,3-thiazol-2-amine] |  | 202 to 204 | 
20 | Cc1cccc(-c2nc(N)sc2-c2ccc(F)c(-c3ccc(S(N)(=O)=O)cc3)c2)n1 [Example 216, 5′-[2-Amino-4-(6-methylpyridin-2-yl)-1,3-thiazol-5-yl]-2′-fluoro-1,1′-biphenyl-4-sulfonamide] |  | 190 to 192 | 

The next lines start with results.

Row | IC50 ([1]; Rattus norvegicus) [µM] | melting point [°C] | Compound | IC50 [1] [µM]
21 | 0.35 | 104 to 106 | Cc1cccc(-c2[nH]c(C(C)C)nc2-c2cccc(-c3ccc(S(C)(=O)=O)cc3)c2)n1 [Example 17, 2-{2-Isopropyl-4-[4′-(methylsulfonyl)-1,1′-biphenyl-3-yl]-1H-imidazol-5-yl}-6-methylpyridine] | 
22 | 1.49 |  | Cc1cccc(-c2[nH]c(C(C)C)nc2-c2cccc(-c3ccc(C(=O)NN4CCN(C)CC4)cc3)c2)n1 [Example 48, N-(4-Methylpiperazin-1-yl)-4-{3-[2-isopropyl-5-(6-methylpyridin-2-yl)-1H-imidazol-4-yl]phenyl}benzamide] | 
23 | 0.52 | 130 to 132 | Cc1cccc(-c2[nH]c(C(C)C)nc2-c2ccc(F)c(-c3ccc(C(=O)NC4CCOCC4)cc3)c2)n1 [Example 65, N-(Tetrahydropyran-4-yl)-4-{2-fluoro-5-[2-isopropyl-5-(6-methylpyridin-2-yl)-1H-imidazol-4-yl]phenyl}benzamide] | 
24 | 0.05 | 77 to 97 | Cc1cccc(-c2nc(C(C)C)[nH]c2-c2ccc(F)c(-c3cnn(C)c3)c2)n1 [Example 110, 2-{5-[4-Fluoro-3-(1-methyl-1H-pyrazol-4-yl)phenyl]-2-isopropyl-1H-imidazol-4-yl}-6-methylpyridine] | 
25 | 1.17 |  | Cc1cccc(-c2[nH]c(C(C)C)nc2-c2ccc(F)c(-c3ccc(OCCN4CCCCC4)cc3)c2)n1 [Example 117, 2-{4-[6-Fluoro-4′-(2-piperidin-1-ylethoxy)-1,1′-biphenyl-3-yl]-2-isopropyl-1H-imidazol-5-yl}-6-methylpyridine] | 
26 | 0.23 | 119 to 123 | Cc1cccc(-c2[nH]c(C(C)C)nc2-c2ccc(F)c(-c3ccc4c(c3)CCS4(=O)=O)c2)n1 [Example 125, 2-{4-[3-(1,1-Dioxido-2,3-dihydro-1-benzothien-5-yl)-4-fluorophenyl]-2-isopropyl-1H-imidazol-5-yl}-6-methylpyridine] | 
27 | 0.79 | 245 to 246 | Cc1cccc(-c2[nH]c(C(C)C)nc2-c2ccc(F)c(-c3ccc(S(N)(=O)=O)cc3)c2)n1 [Example 127, 2′-Fluoro-5′-[2-isopropyl-5-(6-methylpyridin-2-yl)-1H-imidazol-4-yl]-1,1′-biphenyl-4-sulfonamide] | 
28 | 0.18 | 100 to 103 | Cc1cccc(-c2[nH]c(C(C)C)nc2-c2ccc(F)c(-c3cn(C)cn3)c2)n1 [Example 130, 2-{4-[4-Fluoro-3-(1-methyl-1H-imidazol-4-yl)phenyl]-2-isopropyl-1H-imidazol-5-yl}-6-methylpyridine] | 
29 | 0.07 | 268 to 270 | Cc1cccc(-c2[nH]c(C(C)C)nc2-c2ccc(F)c(-c3c[nH]cn3)c2)n1 [Example 137, 2-{4-[4-Fluoro-3-(1H-imidazol-4-yl)phenyl]-2-isopropyl-1H-imidazol-5-yl}-6-methylpyridine] | 
30 | 0.08 | 107 to 109 | Cc1cccc(-c2n[nH]cc2-c2ccc(F)c(-c3ccc4c(c3)CCS4(=O)=O)c2)n1 [Example 146, 2-{4-[3-(1,1-Dioxido-2,3-dihydro-1-benzothien-5-yl)-4-fluorophenyl]-1H-pyrazol-3-yl}-6-methylpyridine] | 
